As usually defined, the EC50 is the concentration giving half of the maximal effect.

The target in the first assay is recombinant human nicotinic acid receptor (NAR) (Homo sapiens, UniProt Q8TDS4). Briefly: Nicotinic Acid Receptor Assay: inhibition of forskolin-stimulated cAMP accumulation in CHO cells (MesoScale Discovery cAMP kit). The following applies: CHO cells expressing recombinant human NAR; forskolin-stimulated cAMP; read-out: NA EC50 camp. The class given is cell-based. In a few lines: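 Compounds were diluted in PBS containing 6 μM forskolin and incubated with cells for 30 min at room temperature. cAMP was quantified by the MesoScale kit against an on-plate standard curve.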
Sequence of recombinant human nicotinic acid receptor (NAR) (Q8TDS4 whole entry): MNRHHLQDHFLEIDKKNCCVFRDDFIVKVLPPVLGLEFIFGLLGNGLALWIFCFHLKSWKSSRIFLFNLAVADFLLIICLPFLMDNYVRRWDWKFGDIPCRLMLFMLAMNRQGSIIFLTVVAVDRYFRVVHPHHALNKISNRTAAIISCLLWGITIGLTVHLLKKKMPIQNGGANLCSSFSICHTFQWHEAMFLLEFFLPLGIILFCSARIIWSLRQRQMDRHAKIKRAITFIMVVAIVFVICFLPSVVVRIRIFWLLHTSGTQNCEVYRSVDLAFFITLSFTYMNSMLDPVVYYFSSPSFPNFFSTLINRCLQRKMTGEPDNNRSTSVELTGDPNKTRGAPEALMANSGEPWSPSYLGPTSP
For `CCc1cc(=O)oc2nc(OCC(=O)c3ccccc3)[nH]c(=O)c12` [Compound 603], the concentration giving a half-maximal response (EC50) fell in the range of 100 to 1000 nM.
As for `CCc1cc(=O)oc2nc(OCC3=Cc4ccccc4S3(=O)=O)[nH]c(=O)c12` [Compound 604], the EC50 was in the range of 100 to 1000 nM.
As for `CCc1cc(=O)oc2nc(OC3CCSCC3)[nH]c(=O)c12` [Compound 605], the concentration for a half-maximal effect (EC50) is over 1000 nM.
Same read-out and setting: next, `CCc1cc(=O)oc2nc(OCCOC3CCCC3)[nH]c(=O)c12` [Compound 606]: over 1000 nM; `CCc1cc(=O)oc2nc(OC(C)COC)[nH]c(=O)c12` (stereo not shown) [Compound 607]: 100 to 1000 nM; `CCc1cc(=O)oc2nc(OCc3cnc(Br)s3)[nH]c(=O)c12` [Compound 608]: 100 to 1000 nM.
As for `Cc1cccc(COc2nc3oc(=O)cc(Cc4ccccc4)c3c(=O)[nH]2)n1` [Compound 609], the EC50 is over 1000 nM.
On the same count and under the same terms, next, `CCc1cc(=O)oc2nc(OCCOC3CCCCC3)[nH]c(=O)c12` [Compound 610]: over 1000 nM; `CCc1cc(=O)oc2nc(OCc3ccccc3C#N)[nH]c(=O)c12` [Compound 611]: over 1000 nM.
Still for that read-out and setting: next, `CCc1cc(=O)oc2nc(OCc3cccc(-n4cccc4)c3)[nH]c(=O)c12` [Compound 612]: over 1000 nM; `CCc1cc(=O)oc2nc(OC[C@H]3CN([C@H](C)c4ccccc4)C(=O)O3)[nH]c(=O)c12` [Compound 613]: 100 to 1000 nM; `CCc1cc(=O)oc2nc(OCCOc3ccccc3F)[nH]c(=O)c12` [Compound 614]: 100 to 1000 nM.
Regarding `O=c1cc(Cc2ccccc2)c2c(=O)[nH]c(OCc3ccccc3F)nc2o1` [Compound 616], the concentration giving a half-maximal response (EC50) lay in the range of 100 to 1000 nM.
Same read-out and setting: next, `CCc1cc(=O)oc2nc(OC[C@@H](OC)c3ccccc3)[nH]c(=O)c12` [Compound 618]: 100 to 1000 nM; `CCc1cc(=O)oc2nc(OCc3cccc(N(C)C)c3)[nH]c(=O)c12` [Compound 619]: 100 to 1000 nM.
Take `CCc1cc(=O)oc2nc(OCCN3CCOC3=O)[nH]c(=O)c12` [Compound 620]: the half-maximal effective concentration (EC50) was over 1000 nM.
Turning to `CCc1cc(=O)oc2nc(OCC(=O)N(CC)CC)[nH]c(=O)c12` [Compound 621], the EC50 fell in the range of 100 to 1000 nM.
Still for that read-out and setting: next, `CCc1cc(=O)oc2nc(OCCOc3c(OC)cccc3OC)[nH]c(=O)c12` [Compound 622]: 100 to 1000 nM; `CCc1cc(=O)oc2nc(OCC#Cc3ccccc3Cl)[nH]c(=O)c12` [Compound 623]: 0.001 to 100 nM; `CCc1cc(=O)oc2nc(OCc3ccc(-n4cccn4)cc3)[nH]c(=O)c12` [Compound 624]: 100 to 1000 nM.
For the compound `CCc1cc(=O)oc2nc(OCc3ccncc3F)[nH]c(=O)c12` [Compound 625], the EC50 fell in the range of 100 to 1000 nM.
Same read-out and setting: under `CCc1cc(=O)oc2nc(OCC#Cc3cccc(Cl)c3)[nH]c(=O)c12` [Compound 626] stands 0.001 to 100 nM.
Consider `O=c1cc(Cc2ccccc2)c2c(=O)[nH]c(OCc3ccccc3)nc2o1` [Compound 627], for which the EC50 is over 1000 nM.
For `CCc1cc(=O)oc2nc(OCc3ccc(-n4cncn4)cc3)[nH]c(=O)c12` [Compound 628], the EC50 is over 1000 nM.
Regarding `CCc1cc(=O)oc2nc(OCc3ccncc3Cl)[nH]c(=O)c12` [Compound 629], the concentration for a half-maximal effect (EC50) lay within 100 to 1000 nM.
`CCc1cc(=O)oc2nc(OCc3ccc(C#N)cc3)[nH]c(=O)c12` [Compound 630]: the EC50 is over 1000 nM.
Still for that read-out and setting: next, `CCc1cc(=O)oc2nc(OC[C@H](C)OC)[nH]c(=O)c12` [Compound 632]: 100 to 1000 nM; `CCc1cc(=O)oc2nc(OC[C@H](O)c3ccccc3)[nH]c(=O)c12` [Compound 633]: 100 to 1000 nM; `CCc1cc(=O)oc2nc(OCc3ccccc3-c3cccc(CO)c3)[nH]c(=O)c12` [Compound 634]: 100 to 1000 nM.
Same read-out and setting: next, `CCc1cc(=O)oc2nc(O[C@H](C)C#CC(=O)OCc3ccccc3)[nH]c(=O)c12` [Compound 635]: over 1000 nM; `CCc1cc(=O)oc2nc(OCC#CCOC)[nH]c(=O)c12` [Compound 636]: 100 to 1000 nM; `CCc1cc(=O)oc2nc(OCC[Si](C)(C)C)[nH]c(=O)c12` [Compound 637]: 100 to 1000 nM.
As for `CCC#CC(C)Oc1nc2oc(=O)cc(CC)c2c(=O)[nH]1` (stereo not shown) [Compound 639], the EC50 lay in the range of 100 to 1000 nM.
Still for that read-out and setting: next, `CCc1cc(=O)oc2nc(OCc3cc(-c4ccccc4Cl)no3)[nH]c(=O)c12` [Compound 640]: 100 to 1000 nM; `CCc1cc(=O)oc2nc(OCC#CCN(C)C)[nH]c(=O)c12` [Compound 641]: 0.001 to 100 nM; `CCc1cc(=O)oc2nc(OCCCSC)[nH]c(=O)c12` [Compound 642]: 100 to 1000 nM.
Consider `CCc1cc(=O)oc2nc(OCCO)[nH]c(=O)c12` [Compound 643], for which the 50% effective concentration (EC50) fell in the range of 100 to 1000 nM.
For `CCc1cc(=O)oc2nc(OCC#CC(C)O)[nH]c(=O)c12` (stereo not shown) [Compound 644], the 50% effective concentration (EC50) was in the range of 0.001 to 100 nM.
The same measure, in the same setting: next, `CCc1cc(=O)oc2nc(OCc3cc4c(C)nn(C)c4s3)[nH]c(=O)c12` [Compound 646]: over 1000 nM; `CCc1cc(=O)oc2nc(OCc3c(-c4c(Cl)cccc4Cl)noc3C)[nH]c(=O)c12` [Compound 647]: 100 to 1000 nM.
On the same count and under the same terms, under `CCc1cc(=O)oc2nc(OCc3ccc(-c4ccccn4)s3)[nH]c(=O)c12` [Compound 648] stands 100 to 1000 nM; under `CCc1cc(=O)oc2nc(OCc3cc(Br)no3)[nH]c(=O)c12` [Compound 649], 100 to 1000 nM; under `CCc1cc(=O)oc2nc(OCCCS(C)(=O)=O)[nH]c(=O)c12` [Compound 650], 100 to 1000 nM.
The same measure, in the same setting: under `CCc1cc(=O)oc2nc(OCc3ccccc3-c3ccc(CO[Si](C)(C)C(C)(C)C)cc3)[nH]c(=O)c12` [Compound 651] stands 100 to 1000 nM.
With `CCc1cc(=O)oc2nc(OCCN(C)C)[nH]c(=O)c12` [Compound 652], the EC50 is 0.001 to 100 nM.
Still for that read-out and setting: under `CCc1cc(=O)oc2nc(OCc3ccnc(NC(=O)C(C)(C)C)c3)[nH]c(=O)c12` [Compound 653] stands over 1000 nM.
The same measure, in the same setting: under `CCc1cc(=O)oc2nc(OCc3cc4cc(C)ccc4s3)[nH]c(=O)c12` [Compound 654] stands 0.001 to 100 nM.
The same measure, in the same setting: under `CCc1cc(=O)oc2nc(OCCSc3ccccn3)[nH]c(=O)c12` [Compound 655] stands 100 to 1000 nM; under `CCc1cc(=O)oc2nc(OCc3cnco3)[nH]c(=O)c12` [Compound 657], over 1000 nM; under `CCc1cc(=O)oc2nc(OCc3ccncc3NC(=O)C(C)(C)C)[nH]c(=O)c12` [Compound 659], over 1000 nM.
`CCCCc1cc(=O)oc2nc(OCCOC)[nH]c(=O)c12` [Compound 660]: the EC50 is over 1000 nM.
As to `COCC#CCOc1nc2oc(=O)cc(Cc3ccc(F)cc3)c2c(=O)[nH]1` [Compound 661], the EC50 was in the range of 100 to 1000 nM.
As to `CCc1cc(=O)oc2nc(OCCOCc3csc4ccccc34)[nH]c(=O)c12` [Compound 662], the EC50 lay in the range of 0.001 to 100 nM.

The assay is the same for the next values; noted with them: NA EC50 camp (nM), CHO cells expressing recombinant human NAR; forskolin-stimulated cAMP.
Take `CCC#CCOc1nc2oc(=O)cc(Cc3ccccc3)c2c(=O)[nH]1` [Compound 615]: the EC50 is 100 to 1000 nM.
On the same count and under the same terms, under `CCc1cc(=O)oc2nc(OCC#CCO)[nH]c(=O)c12` [Compound 631] stands 100 to 1000 nM.
For `CCc1cc(=O)oc2nc(OCC#CC3CCCCC3)[nH]c(=O)c12` [Compound 638], the concentration for a half-maximal effect (EC50) fell in the range of 100 to 1000 nM.
In the case of `CCc1cc(=O)oc2nc(OCC#CCCCO)[nH]c(=O)c12` [Compound 645], the EC50 was in the range of 0.001 to 100 nM.
As for `CCc1cc(=O)oc2nc(OCC#CCCO)[nH]c(=O)c12` [Compound 658], the EC50 is 100 to 1000 nM.
